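Tested at 5 concentrations; 48 h exposure; 96-well plates; endpoints linearly interpolated, else capped at highest concentration. GI50: concentration for 50% inhibition of growth.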 Calls of active or inactive are those of the source. Cut-off read from the data, not from the text of the source: active = GI50 up to about 1.1 µM and inactive = higher.
Experiments:
Assay in all cases: NCI-60 cell line screen, 48 h
[1] = tested on: SK-OV-3
[2] = tested on: SK-MEL-2
[3] = tested on: NCI-H23
[4] = tested on: ACHN
[5] = tested on: SNB-75
[6] = tested on: OVCAR-8
[7] = tested on: SK-MEL-5
[8] = tested on: A549
[9] = tested on: NCI/ADR-RES
[10] = tested on: HCT-116
[11] = tested on: BT-549
[12] = tested on: HCC 2998
[13] = tested on: OVCAR-3
[14] = tested on: SF-539
[15] = tested on: OVCAR-4
[16] = tested on: CAKI-1
[17] = tested on: Malme-3M
[18] = tested on: HOP-62
[19] = tested on: NCI-H522
[20] = tested on: U-251

Measured: GI50

O=C(c1ccco1)N1CCN(C(=O)c2ccco2)C1=S
inactive: [1] 17.3 µM | [2] 13 µM | [3] 18.4 µM | [4] 8.07 µM | [5] 10.4 µM | [6] 11 µM | [7] 10.1 µM | [8] 7.74 µM | [9] 21.1 µM | [10] 9.86 µM | [11] 8.47 µM | [12] 12.4 µM | [13] 3.44 µM | [14] 3.33 µM | [15] 17.1 µM | [16] 4.72 µM | [17] 6.07 µM | [18] 10.6 µM | [19] 3.91 µM | [20] 10 µM

COc1ccc(Cl)cc1NC(=O)c1cccc([N+](=O)[O-])c1O
inactive: [1] 24.7 µM | [2] 4.17 µM | [3] 10.4 µM | [4] 12.4 µM | [5] 17.8 µM | [6] 17.8 µM | [7] 4 µM | [8] 11.2 µM | [9] 10 µM | [10] 16.6 µM | [11] 4.37 µM | [12] 14 µM | [13] 5.19 µM | [14] 16.1 µM | [15] 10.2 µM | [16] 16.2 µM | [17] 4.97 µM | [18] 13.4 µM | [19] 6.49 µM | [20] 11.9 µM

C[C@]12CC[C@@H]3c4ccc(OC(=O)c5ccccc5)cc4CC[C@H]3[C@@H]1CCC2OC(=O)c1cccc2c(=O)c3ccccc3[nH]c12 (stereo not given in full)
inactive: [1] 30.4 µM | [2] 14.1 µM | [3] 20.8 µM | [4] 22.3 µM | [5] 23 µM | [6] 18.3 µM | [7] 24.1 µM | [8] 14.2 µM | [9] 18 µM | [10] 16.4 µM | [11] 18.2 µM | [12] 15.2 µM | [13] 26.1 µM | [14] 16.6 µM | [15] 15.6 µM | [16] 27 µM | [17] 24.5 µM | [18] 22.3 µM | [19] 23.3 µM | [20] 15.7 µM

N[C@H](C(=O)O)[C@@H]1CC(Br)=NO1
inactive: [1] 8.05 µM | [2] > 91.8 µM | [3] > 35.7 µM | [4] 8.22 µM | [5] 16.8 µM | [6] > 25 µM | [7] 14.5 µM | [8] 3.66 µM | [9] 39.7 µM | [10] 5.6 µM | [11] > 27 µM | [12] 22.7 µM | [13] 16.5 µM | [14] 5.21 µM | [15] 21.9 µM | [16] 18.4 µM | [17] > 25.1 µM | [18] 12.2 µM | [19] > 32 µM | [20] 10.4 µM
